ChEMBL document CHEMBL1128637, “Enantioselective synthesis of inositols as intermediates for the preparation of deoxy-inositol phosphates from D-galactose” (Bioorg Med Chem Lett, 1995)

Legend:
[1] = target: T1, Type 1 InsP3 receptor isoform S2 (Sus scrofa, UniProt P79248); assay: Binding affinity was determined by its ability to displace specifically bound […] from purified porcine cerebellum membrane.; assay type: tissue-based
[2] = target: T1, Type 1 InsP3 receptor isoform S2; assay: Binding affinity of compound was determined by its ability to displace specifically bound […] from purified porcine cerebellum membrane; assay type: tissue-based

T1 sequence (P79248 whole entry, canonical isoform): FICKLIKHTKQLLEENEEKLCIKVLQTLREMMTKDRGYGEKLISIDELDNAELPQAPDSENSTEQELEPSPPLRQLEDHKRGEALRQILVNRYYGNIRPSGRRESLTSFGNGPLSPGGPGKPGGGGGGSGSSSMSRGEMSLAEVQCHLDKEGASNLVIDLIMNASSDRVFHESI

IC50 [1] | IC50 [2] [µM] | SMILES
Not Active | – | COC1OC(CBr)C2OC3(CCCCC3)OC2C1O (stereo not drawn)
Not Active | – | OC1CC(O)C2OC3(CCCCC3)OC2C1O (stereo not drawn)
Not Active | – | CO[C@@H]1O[C@@H](CO)[C@@H]2OC3(CCCCC3)O[C@@H]2[C@@H]1O
Not Active | – | OC1CC(O)C2OC3(CCCCC3)OC2C1OCc1ccccc1 (stereo not drawn)

Second part, the molecule before the results:

SMILES | IC50 [1] | IC50 [2] [µM]
CO[C@@H]1O[C@H](CO)[C@H](O)[C@H](O)[C@H]1O | Not Active | –
O[C@H]1[C@@H](O)[C@H](O)C[C@@H](O)[C@H]1O | Not Active | –
O=P(O)(O)O[C@@H]1[C@H](O)[C@H](O)[C@@H](OP(=O)(O)O)[C@H](OP(=O)(O)O)[C@H]1O [INS(1,4,5)P3] | – | 0.02
C=C1OC(OC)C(OCc2ccccc2)C2OC3(CCCCC3)OC12 (stereo not drawn) | Not Active | –
O=P(OCc1ccccc1)(OCc1ccccc1)OC1CC(OP(=O)(OCc2ccccc2)OCc2ccccc2)C2OC3(CCCCC3)OC2C1OCc1ccccc1 (stereo not drawn) | Not Active | –
O=P(O)(O)OC1CC(OP(=O)(O)O)C(OP(=O)(O)O)C(O)C1O (stereo not drawn) | – | 1.5
O=P(OCc1ccccc1)(OCc1ccccc1)OC1CC(OP(=O)(OCc2ccccc2)OCc2ccccc2)C(OP(=O)(OCc2ccccc2)OCc2ccccc2)C2OC3(CCCCC3)OC12 (stereo not drawn) | Not Active | –
O=C1CC(O)C(OCc2ccccc2)C2OC3(CCCCC3)OC12 (stereo not drawn) | Not Active | –
COC1OC(CBr)C2OC3(CCCCC3)OC2C1OCc1ccccc1 (stereo not drawn) | Not Active | –
